# Where a name gives a salt, the structure may show the parent alone.
# Target: T1, purified human Factor XIa (Homo sapiens, UniProt P03951)
# T1 construct: purchased Haematologic Technologies
# Assay: Factor XIa assay (chromogenic substrate S-2366 hydrolysis, Ki)
# Format: biochemical
# Conditions: not given
# Method: The effectiveness of compounds of the present invention as inhibitors of the coagulation factors XIa, VIIa, IXa, Xa, XIIa, plasma kallikrein or thrombin, can be determined using a relevant purified serine protease, respectively, and an appropriate synthetic substrate. The rate of hydrolysis of the chromogenic or fluorogenic substrate by the relevant serine protease was measured both in the absence and presence of compounds of the present invention. […] A decrease in the rate of absorbance or fluorescence change in the presence of inhibitor is indicative of enzyme inhibition. Such methods are known to one skilled in the art. The results of this assay are expressed as the inhibitory constant, Ki.
# Values of Ki were determined by allowing the protease to react with the substrate in the presence of the inhibitor. Reactions were allowed to go for periods of 20-180 minutes (depending on the protease) and the velocities (rate of absorbance or fluorescence change versus time) were measured. The following relationships were used to calculate Ki values:
# vs/vo=A+((B−A)/1+((IC50/(I)^n))) and […]
# T1 sequence (P03951 19-387): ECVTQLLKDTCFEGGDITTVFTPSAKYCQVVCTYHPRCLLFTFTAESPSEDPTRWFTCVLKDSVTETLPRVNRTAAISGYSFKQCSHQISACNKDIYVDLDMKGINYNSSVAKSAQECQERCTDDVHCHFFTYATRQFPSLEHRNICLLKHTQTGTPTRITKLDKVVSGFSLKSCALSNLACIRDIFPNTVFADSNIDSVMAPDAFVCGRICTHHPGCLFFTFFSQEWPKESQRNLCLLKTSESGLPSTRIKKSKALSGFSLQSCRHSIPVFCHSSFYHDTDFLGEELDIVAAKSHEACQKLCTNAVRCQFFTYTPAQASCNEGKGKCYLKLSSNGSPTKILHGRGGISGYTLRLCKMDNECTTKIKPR
# T1 sequence (P03951 388-625): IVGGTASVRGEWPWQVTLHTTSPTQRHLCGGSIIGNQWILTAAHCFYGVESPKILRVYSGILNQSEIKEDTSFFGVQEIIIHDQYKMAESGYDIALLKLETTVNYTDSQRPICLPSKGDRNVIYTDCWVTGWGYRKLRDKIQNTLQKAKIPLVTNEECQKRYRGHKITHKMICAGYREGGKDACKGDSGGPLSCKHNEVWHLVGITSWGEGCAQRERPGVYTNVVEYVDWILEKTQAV
row,Compound,Ki [nM]
1,"CS(=O)(=O)CC[C@H](NC(=O)/C=C/c1cc(Cl)ccc1-n1cnnn1)C(=O)Nc1ccc(C(=O)O)cc1 [Example 231, (S,E)-4-(2-(3-(5-chloro-2-(1H-tetrazol-1-yl)phenyl)acrylamido)-4-(methylsulfonyl)butanamido)benzoic acid]",44.4
2,"O=C(/C=C/c1cc(Cl)ccc1-n1cnnn1)N[C@@H](CC(=O)NCc1cnccn1)C(=O)Nc1ccc(C(=O)O)cc1 [Example 252, (S,E)-4-(2-(3-(5-chloro-2-(1H-tetrazol-1-yl)phenyl)acrylamido)-4-oxo-4-(pyrazin-2-ylmethylamino)butanamido)benzoic acid]",16.2
3,"N/C(=N/[N+](=O)[O-])NCCC[C@H](NC(=O)/C=C/c1cc(Cl)ccc1-n1cnnn1)C(=O)Nc1ccc(C(=O)O)cc1 [Example 253, 4-((S)-2-((E)-3-(5-chloro-2-(1H-tetrazol-1-yl)phenyl)acrylamido)-5-((Z)-2-nitroguanidino)pentanamido)benzoic acid]",19.3
4,"COC[C@H](NC(=O)/C=C/c1cc(Cl)ccc1-n1cnnn1)C(=O)Nc1ccc(C(=O)O)cc1 [Example 254, (S,E)-4-(2-(3-(5-chloro-2-(1H-tetrazol-1-yl)phenyl)acrylamido)-3-methoxypropanamido)benzoic acid]",3630
5,"O=C(/C=C/c1cc(Cl)ccc1-n1cnnn1)N[C@H](C(=O)Nc1ccc(C(=O)O)cc1)[C@@H]1CCCNC1 [Example 262, 4-((S)-2-((E)-3-(5-chloro-2-(1H-tetrazol-1-yl)phenyl)acrylamido)-2-((R)-piperidin-3-yl)acetamido)benzoic acid]",2330
6,"CC(C)(C)SC[C@H](NC(=O)/C=C/c1cc(Cl)ccc1-n1cnnn1)C(=O)Nc1ccc(C(=O)O)cc1 [Example 282, (R,E)-4-(3-(tert-butylthio)-2-(3-(5-chloro-2-(1H-tetrazol-1-yl)phenyl)acrylamido)propanamido)benzoic acid]",32.5
7,"O=C(/C=C/c1cc(Cl)ccc1-n1cnnn1)N[C@@H](CC(=O)NCCN1CCOCC1)C(=O)Nc1ccc(C(=O)O)cc1 [Example 286, (S,E)-4-(2-(3-(5-chloro-2-(1H-tetrazol-1-yl)phenyl)acrylamido)-4-(2-morpholinoethylamino)-4-oxobutanamido)benzoic acid, Trifluoroacetic acid salt]",481

# Now from value to compound:
row,Ki [nM],Compound
1,16.2,"O=C(/C=C/c1cc(Cl)ccc1-n1cnnn1)NC(Cc1cnc2ccccc2n1)C(=O)Nc1ccc(C(=O)O)cc1 (centres unmarked) [Example 251, (E)-4-(2-(3-(5-chloro-2-(1H-tetrazol-1-yl)phenyl)acrylamido)-3-(quinoxalin-2-yl)propanamido)benzoic acid]"
2,9260,O=C(N[C@@H](Cc1ccccc1)C(=O)NCCc1cc(Cl)ccc1-n1cnnn1)c1cn2cccnc2n1 [Example 295]
3,12.4,"O=C(/C=C/c1cc(Cl)ccc1-n1cnnn1)N[C@@H](CC1CCN(C(=O)c2ccccc2)C1)C(=O)Nc1ccc(C(=O)O)cc1 (stereo partly drawn) [Example 307, 4-((2S)-3-(1-benzoylpyrrolidin-3-yl)-2-((E)-3-(5-chloro-2-(1H-tetrazol-1-yl)phenyl)acrylamido)propanamido)benzoic acid]"

# Same assay, conditions: purified human Factor XIa 75-200 pM, substrate S-2366, 50 mM HEPES pH 7.4; read-out: Factor XIa Ki
row,Ki [nM],Compound
1,4.66,"O=C(/C=C/c1cc(Cl)ccc1-n1cnnn1)N[C@@H](Cc1c[nH]c2ccccc12)C(=O)Nc1ccc(C(=O)O)cc1 [Example 238, (S,E)-4-(2-(3-(5-chloro-2-(1H-tetrazol-1-yl)phenyl)acrylamido)-3-(1H-indol-3-yl)propanamido)benzoic acid, TFA salt]"
2,2.41,"O=C(/C=C/c1cc(Cl)ccc1-n1cnnn1)N[C@@H](Cc1cccs1)C(=O)Nc1ccc(C(=O)O)cc1 [Example 248, (S,E)-4-(2-(3-(5-chloro-2-(1H-tetrazol-1-yl)phenyl)acrylamido)-3-(thiophen-2-yl)propanamido)benzoic acid]"
3,6.09,"O=C(/C=C/c1cc(Cl)ccc1-n1cnnn1)N[C@@H](Cc1cccnc1)C(=O)Nc1ccc(C(=O)O)cc1 [Example 249, (S,E)-4-(2-(3-(5-chloro-2-(1H-tetrazol-1-yl)phenyl)acrylamido)-3-(pyridin-3-yl)propanamido)benzoic acid]"

row,Compound,Ki [nM]
1,(4-{(S)-2-[(E)-3-(5-chloro-2-tetrazol-1-yl-phenyl)-acryloylamino]-3-phenyl-propionylamino}-cyclohexyl)-carbamic acid methyl ester [Example 11],4440

# Source: patent publication US8367709B2, “Dipeptide analogs as coagulation factor inhibitors” (priority 2007, dated 2013)
